From PMC12081876, “Identification of PTGR2 inhibitors as a new therapeutic strategy for diabetes and obesity” (EMBO Molecular Medicine, 2025)
Values joined by “and” are separate entries in the source; they are usually repeats but may differ in a detail not shown here. Equal entries are not always repeated.

What was measured:
murine PPARγ (mPPARγ) [1] = molecular target: T1, murine PPARγ (mPPARγ) (Mus musculus, UniProt P37238); assay: Gal4-PPARγ/UAS-LUC reporter assay in HEK293T cells; format: cell-based; design: key to Gal4-PPARγ/UAS-LUC reporter activity, Fig 1B replicates: luciferase activity normalized to TK reporter signal
T1 construct: host or cells: HEK293T
Experimental: Briefly, HEK293T cells were seeded in 24-well plates at 1 × 10^5 cells/well. […] Luciferase activity was measured using Luc-Pair™ Duo-Luciferase HS Assay Kit (cat. no. LF600, Promega) and normalized with the TK reporter signal.
T1 sequence (P37238 with tags, fused parts or gaps limits assumed): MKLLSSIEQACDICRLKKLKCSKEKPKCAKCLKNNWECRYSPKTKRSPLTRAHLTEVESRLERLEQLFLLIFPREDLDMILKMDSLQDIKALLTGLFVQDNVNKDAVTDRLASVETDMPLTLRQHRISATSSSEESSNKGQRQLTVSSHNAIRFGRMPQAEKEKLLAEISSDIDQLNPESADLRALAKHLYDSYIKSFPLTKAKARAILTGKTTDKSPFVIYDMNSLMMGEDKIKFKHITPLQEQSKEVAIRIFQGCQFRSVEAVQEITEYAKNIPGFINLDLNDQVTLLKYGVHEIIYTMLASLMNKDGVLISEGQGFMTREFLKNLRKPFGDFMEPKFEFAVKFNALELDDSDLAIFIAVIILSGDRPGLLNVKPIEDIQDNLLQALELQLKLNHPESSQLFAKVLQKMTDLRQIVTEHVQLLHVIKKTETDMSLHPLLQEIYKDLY

Myc-DDK-mPPARγ = molecular target: T2, Myc-DDK-mPPARγ (Mus musculus, UniProt P37238); assay: Reciprocal co-immunoprecipitation in HEK293T cells, wild-type mPPARγ; format: binding, murine; settings: 15-keto-PGE2 treated
T2 construct: host or cells: HEK293T
T2 sequence (P37238 whole entry): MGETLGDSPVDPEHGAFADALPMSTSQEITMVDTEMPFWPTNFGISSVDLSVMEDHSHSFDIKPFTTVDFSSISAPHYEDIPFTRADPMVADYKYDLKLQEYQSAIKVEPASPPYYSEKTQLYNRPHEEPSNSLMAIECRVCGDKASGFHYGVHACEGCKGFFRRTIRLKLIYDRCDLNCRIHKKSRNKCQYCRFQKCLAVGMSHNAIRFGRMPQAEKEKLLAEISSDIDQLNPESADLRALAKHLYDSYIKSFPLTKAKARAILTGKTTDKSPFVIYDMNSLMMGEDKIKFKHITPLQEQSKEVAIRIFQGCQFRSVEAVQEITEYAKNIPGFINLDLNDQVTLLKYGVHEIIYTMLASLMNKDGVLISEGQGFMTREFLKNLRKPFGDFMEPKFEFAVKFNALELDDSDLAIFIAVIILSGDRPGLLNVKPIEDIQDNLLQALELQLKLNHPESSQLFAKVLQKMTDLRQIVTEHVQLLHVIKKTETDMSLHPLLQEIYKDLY
Experimental: (§1) HEK293T cells were transfected with murin PPARγ (mPPARγ) and mPPARγ C313A plasmids for immunoprecipitation, which are Myc-DDK-tagged (OriGene, USA). […] According to the manufacturer’s protocol, proteins were immunoprecipitated using Anti-FLAG® M2 Magnetic Beads (2.5 mg/ml; cat. no. F1804, Sigma-Aldrich). Subsequently, the eluted proteins were separated by SDS-PAGE and subjected to immunoblot analysis. Following separation by SDS-PAGE, proteins were stained with Coomassie blue and SYPRO-Ruby stain. The protein bands of interest were cut out for in-gel tryptic digestion followed by C18 Zip-Tip clean-up (Millipore, USA). For proteomic shotgun identifications, nanoLC-nanoESI-MS/MS analysis was performed on a nanoAcquity system (Waters, USA) connected to the LTQ Orbitrap Velos hybrid MS (Thermo Electron, USA) equipped with a PicoView nanospray interface (New Objective, USA). Samples were loaded onto a C18 BEH column (75 μm × 25 cm length, 130 Å, 1.7 μm particle size) (Waters, USA) and separated by a segmented gradient form in 60 min from 5% to 40% acetonitrile (with 0.1% formic acid) at a constant flow rate of 300 nL/min with a column temperature of 35 °C. The mass spectrometer was operated in the data-dependent mode. […] Protein identification and modification were analyzed using Mascot Daemon (Matrix Science Inc., Chicago). […]

mPPARγ = molecular target: T3, mPPARγ (Mus musculus, UniProt P37238); assay: Co-immunoprecipitation in mouse white adipose tissue; format: binding; settings: epididymal white adipose tissue of Ptgr2+/+ and Ptgr2−/− mice
T3 construct: from tissue; host or cells: perigonadal (epididymal) white adipose tissue of Ptgr2+/+ and Ptgr2-/- mice
T3 sequence (P37238 whole entry): as above
Excerpt: Lysates from the perigonadal fat of Ptgr2^+/+ and Ptgr2^−/− mice were immunoprecipitated with a mouse anti-15-keto-PGE2-cysteine-BSA antibody (1:1000) and then immunoblotted with a rat anti-PPARγ antibody (1:1000, cat. no. sc-7273, Santa Cruz Biotechnology).

murine PPARγ (mPPARγ) [2] = molecular target: T4, murine PPARγ (mPPARγ) (Mus musculus, UniProt P37238); assay: LC-MS/MS of covalent binding to mPPARγ overexpressed in HEK293T cells; settings: HEK293T cells overexpressing mPPARγ
T4 construct: host or cells: HEK293T
Experimental: as §1
T4 sequence (P37238 whole entry, the tested form may be a part): as the sequence (P37238 whole entry) above

PTGR2 = assay: 15-keto-PGE2 content in fat tissue after BPRPT0245 dosing; format: in vivo, mouse; settings: BPRPT0245 100 mg/kg/day oral, 4 days, 2 h after last dose, vs vehicle
Experimental: Liquid nitrogen-frozen tissue was grinded using pestle and mortar. Approximately 500 mg of tissue powders were immersed with 400 μL of the upper layer of acetonitrile (ACN)/hexane mixture supplemented with 0.5% formic acid, and then homogenized with ceramic beads by MagNA Lyser (Roche, USA). The homogenate was then added with 600 μL ACN containing 13,14 dihydro-15-keto-PGE2-d4 (cat no. 10007978, Cayman Chemical, Ann Arbor, MI) in 1:20,000 dilution and homogenized, followed by the addition of 600 μL ddH2O. The mixture was centrifuged at 12,000 × g for 10 min at 0 °C. The lower layer was transferred to a new tube. A C-18 solid-phase extraction (SPE) cartridge (Cat no. 400020, Cayman Chemical) was sequentially activated with 20 mL methanol and 20 mL ddH2O. The protein sample was loaded into activated SPE cartridge. Once the sample passed the cartridge, the cartridge was washed with 5 mL 15% methanol and then 5 mL ddH2O. Finally, the sample was eluted with 10 mL HPLC-degree methanol (Methanol Chromasolv LC-MS, Fluka) and aliquoted into new 2-mL tubes. […]
The HPLC system consisted of an Agilent 1200 series LC System with BinPump (Waldbronn, Germany) and an Agilent Eclipse XDB C8 (3.0 × 150 mm, 5 µm) interfaced to a Sciex API 4000 tandem mass spectrometer. […] The ions monitored for BPRPT0245 were m/z 447/189 and m/z 357/195, respectively. […]

[3] = Serum ALT, total bilirubin, BUN and creatinine; format: in vivo, mouse; settings: 100 mg/kg/day, vs vehicle
[4] = tested on: F4/80-positive macrophages; assay: F4/80 immunohistochemical stain of perigonadal fat; format: in vivo, mouse; settings: 100 mg/kg/day oral, HFHSD-fed mice, vs vehicle
Experimental: Mice perigonadal fat were paraffin-embedded and the 4-µm tissue sections were cut from the paraffin blocks on the slides by Pathology core of the Institute of Biomedical Sciences, Academia Sinica. The slides were conducted immunochemistry staining using primary antibodies for F4/80 (1:200; cat#H0005972-M01, Abnova) and digitized using an Olympus BX51 microscope combined with an Olympus DP72 camera and CellSens Standard 1.14 software (Olympus, Germany).

Gal4-PPARγ/UAS-LUC reporter activity, Fig 1B replicates (murine PPARγ (mPPARγ) [1]; 15kPGE2 5μM)	Gal4-PPARγ/UAS-LUC reporter activity, Fig 1B replicates (murine PPARγ (mPPARγ) [1]; 15kPGE2 10μM)	Gal4-PPARγ/UAS-LUC reporter activity, Fig 1B replicates (murine PPARγ (mPPARγ) [1]; 15kPGE2 30μM)	Compound	transactivation activity of PPARγ (Gal4-PPARγ/UAS-LUC reporter) (murine PPARγ (mPPARγ) [1]; HEK293T cells)	co-immunoprecipitation with 15-keto-PGE2-cysteine antibody, wild-type mPPARγ (Myc-DDK-mPPARγ)	co-immunoprecipitation of mPPARγ with anti-15-keto-PGE2-cysteine-BSA antibody in fat tissue (mPPARγ)	covalent binding site on mPPARγ (LC-MS/MS) (murine PPARγ (mPPARγ) [2])	increase of 15-keto-PGE2 content in inguinal fat (PTGR2)	increase of 15-keto-PGE2 content in perigonadal fat (PTGR2; trend)	serum ALT, total bilirubin, BUN and creatinine levels [3]	F4/80-positive macrophages in perigonadal fat [4]
2.161 and 2.101 and 1.961	2.283 and 3.108 and 3.049	5.273 and 6.22 and 5.349	CCCCCC(=O)/C=C/[C@H]1[C@H](O)CC(=O)[C@@H]1C/C=C\CCCC(=O)O [15-keto-PGE2, 15-keto-prostaglandin E2]	enhanced the transactivation activity of PPARγ in a dose-dependent manner	A single band of PPARγ (57 kDa) was detected	confirming the covalent binding of mPPARγ to 15-keto-PGE2	covalently binds mPPARγ at the Cys313 residue				
			Cc1[nH]c2nc(C(C)N3CCN(c4ccccc4)CC3)nn2c(=O)c1Cc1ccc(F)cc1 (centres unmarked) [BPRPT0245]					~ 1.32 fold	~ 1.34 fold	no differences	fewer F4/80-positive macrophages
